Experimental data published in PMC12525769, “Structure and quenching of a bundle-shaped phycobilisome” (Science Advances, 2025).

Tests used:
Assay in all cases: cryo-EM structure of phycobilisome
Format in all cases: binding
ApcE = target: T1, ApcE (Gloeobacter violaceus, UniProt Q7NL81); conditions: covalent; terminal emitter, D ring stacks on Trp162; ring conformation not resolved without restraints
T1 construct: native, within isolated GraFix cross-linked phycobilisome; bilin in N-terminal alpha-like domain, in third AP trimer of basal cylinders
T1 sequence (Q7NL81 1-1155): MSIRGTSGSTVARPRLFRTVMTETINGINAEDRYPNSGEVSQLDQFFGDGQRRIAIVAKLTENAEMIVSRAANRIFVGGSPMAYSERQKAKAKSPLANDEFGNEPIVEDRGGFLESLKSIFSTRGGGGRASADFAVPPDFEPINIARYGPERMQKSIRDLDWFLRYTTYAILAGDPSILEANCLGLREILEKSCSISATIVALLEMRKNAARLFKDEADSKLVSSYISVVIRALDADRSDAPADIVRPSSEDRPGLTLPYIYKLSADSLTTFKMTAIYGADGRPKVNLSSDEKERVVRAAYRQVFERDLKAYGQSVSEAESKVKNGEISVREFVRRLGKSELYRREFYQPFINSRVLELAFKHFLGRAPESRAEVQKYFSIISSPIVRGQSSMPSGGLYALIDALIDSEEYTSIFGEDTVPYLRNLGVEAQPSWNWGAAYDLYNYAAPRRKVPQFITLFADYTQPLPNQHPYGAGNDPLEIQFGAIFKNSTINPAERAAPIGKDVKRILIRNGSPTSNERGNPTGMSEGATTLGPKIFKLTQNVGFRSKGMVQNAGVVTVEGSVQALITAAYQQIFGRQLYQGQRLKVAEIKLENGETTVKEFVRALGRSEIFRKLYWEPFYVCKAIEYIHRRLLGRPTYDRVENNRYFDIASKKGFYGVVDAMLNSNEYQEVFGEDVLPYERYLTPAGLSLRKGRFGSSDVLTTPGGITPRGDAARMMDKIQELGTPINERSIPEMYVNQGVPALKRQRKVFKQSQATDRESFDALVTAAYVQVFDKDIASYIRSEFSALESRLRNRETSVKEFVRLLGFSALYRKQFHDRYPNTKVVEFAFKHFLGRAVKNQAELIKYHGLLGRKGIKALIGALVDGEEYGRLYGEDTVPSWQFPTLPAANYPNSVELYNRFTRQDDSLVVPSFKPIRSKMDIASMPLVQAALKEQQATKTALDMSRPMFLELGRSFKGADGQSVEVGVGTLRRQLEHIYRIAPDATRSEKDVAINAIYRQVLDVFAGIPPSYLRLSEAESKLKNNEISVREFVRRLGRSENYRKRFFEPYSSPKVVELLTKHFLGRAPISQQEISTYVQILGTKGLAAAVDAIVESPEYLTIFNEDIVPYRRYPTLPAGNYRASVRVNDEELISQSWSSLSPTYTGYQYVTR

allophycocyanin (AP) = target: T2, allophycocyanin (AP) (Gloeobacter violaceus, UniProt Q7NL79+Q7NL80); conditions: covalent; one bilin on each alpha and beta subunit
T2 construct: gene apcA; native, (αβ)3 trimers of the pentacylindrical core in isolated GraFix cross-linked phycobilisome
T2 sequence (Q7NL80 1-161): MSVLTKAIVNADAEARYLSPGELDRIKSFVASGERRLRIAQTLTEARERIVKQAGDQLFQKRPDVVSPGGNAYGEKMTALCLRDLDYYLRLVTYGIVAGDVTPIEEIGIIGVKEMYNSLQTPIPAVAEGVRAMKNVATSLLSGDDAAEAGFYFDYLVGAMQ
T2 sequence (Q7NL79 1-161): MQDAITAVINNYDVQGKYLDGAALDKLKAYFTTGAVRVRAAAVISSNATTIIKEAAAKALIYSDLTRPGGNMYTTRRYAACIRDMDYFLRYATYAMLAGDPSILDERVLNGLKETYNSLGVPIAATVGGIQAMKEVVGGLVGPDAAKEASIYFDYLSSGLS

phycocyanin (PC) = target: T3, phycocyanin (PC) (Gloeobacter violaceus, UniProt Q7M7C7+Q7M7F7); conditions: covalent; one bilin on alpha, two on beta
T3 construct: gene cpcA; native, (αβ)6 hexamers of rods and Rx in isolated GraFix cross-linked phycobilisome
T3 sequence (Q7M7F7 1-162): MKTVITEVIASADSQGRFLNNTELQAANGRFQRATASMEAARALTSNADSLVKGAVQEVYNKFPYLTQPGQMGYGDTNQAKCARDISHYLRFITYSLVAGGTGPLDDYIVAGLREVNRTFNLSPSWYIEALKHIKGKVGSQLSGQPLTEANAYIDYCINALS
T3 sequence (Q7M7C7 1-172): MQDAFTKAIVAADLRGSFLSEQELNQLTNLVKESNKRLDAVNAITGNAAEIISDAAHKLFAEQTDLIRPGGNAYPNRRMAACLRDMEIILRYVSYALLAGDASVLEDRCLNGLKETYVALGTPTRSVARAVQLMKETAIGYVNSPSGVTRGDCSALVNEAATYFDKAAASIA

Q: For `CC=C1C(=Cc2[nH]c(C=C3N=C(C=C4NC(=O)C(CC)=C4C)C(C)=C3CCC(=O)O)c(CCC(=O)O)c2C)NC(=O)C1C` (stereo not drawn) [phycocyanobilin], which “cryo-EM structure of phycobilisome” value (ApcE) is on record?
A: resolved in cryo-EM density map, including the terminal emitting bilin in ApcE

Q: And the “cryo-EM structure of phycobilisome” value (allophycocyanin (AP))?
A: PCB conformations within PC hexamers in rods and AP hexamers in the core were resolved

Q: And the “cryo-EM structure of phycobilisome” value (phycocyanin (PC))?
A: PCB conformations within PC hexamers in rods and AP hexamers in the core were resolved
